This note sets out measurements from patent publication US8716558B2, “Method of altering glycosylation of proteins in response to nojirimycin glucuronide in a plant cell expressing glucuronidase” (Marker Gene Technologies, Inc., priority 1999, dated 2014).

The structures appear in SMILES notation.

What all share (type): in vivo
Assay [1] deals with wild-type potato plants. The assay is described as follows: Negative selection of potato, wild type. The conditions noted are these: M0627 3.5 mg/L, M0630 10 mg/L, M0632 10 mg·L, M0792 5 mg/L; MS media, soil or daily spray.
The subject of assay [2] is GUS-positive potato (May queen) plants. Nature of the assay: Negative selection of potato transformants. As to conditions: M0627 3.5 mg/L, M0630 10 mg/L, M0632 10 mg·L, M0792 5 mg/L; MS media, soil or daily spray. On the procedure:
Potato (May queen) pieces with sprouts are planted in a mixture of vermiculite and compost (1:1). After two weeks, the apical meristem culture of the grown sprouts is removed to obtain the sterile seedling plants. Sterile plants are then placed in MS liquid medium containing 2% sucrose, pH 5.7 (80 ml) and incubated with rotation at 25° C. in a well-lighted place to induce rooting. After two weeks, the rooted plants are transferred into MS liquid medium for microtuber induction (MS medium, 8% sucrose, pH 5.7, 40 ml medium in 100 ml Erlenmeyer flask) in the dark for 28 days. The microtubers are then cut into pieces (2 mm) and transferred into agar medium for regeneration (MS medium, 2% sucrose, 1 mg/l zeatin, 0.1 mg/l IAA, 1% agar). The pieces of the microtuber pre-cultured for two days are then immersed in an Agrobacterium tumefaciens strain LBA4404 suspension containing the binary plasmid pBI121 (Clontech, Palo Alto, Calif.) for transformation. The plasmid pBI121 carries the neomycin phosphotransferase (NPTII) gene and β-glucuronidase (GUS) gene. In this vector, the neomycin phosphotransferase (NPTII) gene is under the control of the nopaline synthase (nos) promoter and the terminator from nopaline synthase (nos) which provides polyadenylation signal. The neomycin phosphotransferase (NPTII) gene confers kanamycin resistance. The β-glucuronidase (GUS) activity is under the control of the cauliflower mosaic virus ^35S promoter, providing constitutive expression in all tissues, and the terminator from nopaline synthase (nos) provides polyadenylation. Agrobacterium tumefaciens was grown overnight at 28° C. in liquid YEP medium (Sambrook J., Fritsch E. F., Maniatis T., Molecular Cloning: a laboratory manual. 2nd ed., Cold Spring Harbor, N.Y., 1989) supplemented with 25 mg/l rifampicin, 50 mg/l streptomycin, and 50 mg/l kanamycin. An overnight culture is diluted with liquid TE medium to 4×10^8 cells/ml for transformation. A filter paper is placed on the agar medium, over the microtuber pieces and the co-culture is continued for 48 hours. The transfected microtubers are then washed 4-5 times in sterile distilled water to decrease the concentration of Agrobacterium tumefaciens and with a cefotaxime (250 mg/l) solution for 20 min, and then again with sterile distilled water (4-5 times). The microtubers are then transferred into an agar screening medium (MS medium, 2% sucrose, 1 mg/l zeatin, 1 mg/l IAA, 1% agar, 50 mg/l kanamycin, 500 mg/l Claforan, 1% agar). After about two months growth, the divided shoots are transferred into a rooting induction medium and then into a microtuber induction medium. The obtained GUS-positive plants are used for the analysis.

Assay [3] deals with GUS-positive tomato (minitomato) plants. The assay is described as follows: Negative selection of tomato transformants. The conditions noted are these: M0627 3.5 mg/L, M0630 10 mg/L, M0632 10 mg·L, M0792 5 mg/L; MS media, soil or daily spray. On the procedure:
Tomato (cultivar, minitomato) seeds are surface-sterilized with 70% ethanol (30 seconds) and 2% sodium hypochlorite (15 minutes), and then placed on a plant hormone-free MS agar medium. The seeds are cultured at […] 23° C. in long-day (16 hours light/8 hours dark) cycles, under a mixture of Cool White and Gro-Lux/WS fluorescent lights (Osram, Sylvania) and sterile conditions. The cotyledons are taken from the obtained sterile seedlings and then placed on an MS agar medium containing 2 mg/l of Zeatin and 0.1 mg/l of IAA (regeneration medium) in 9 cm Petri dishes, and cultured under the same conditions as those described above for 2 days.
Agrobacterium tumefaciens strain LBA4404 suspension containing the binary plasmid pBI121 (Clontech, Palo Alto, Calif.) is used for transformation. The plasmid pBI121 carries the neomycin phosphotransferase (NPTII) gene and β-glucuronidase (GUS) gene. In this vector, the neomycin phosphotransferase (NPTII) gene is under the control of the nopaline synthase (nos) promoter and the terminator from nopaline synthase (nos) which provides polyadenylation signal. The neomycin phosphotransferase (NPTII) gene confers kanamycin resistance. The β-glucuronidase (GUS) activity is under the control of the cauliflower mosaic virus ^35S promoter, providing constitutive expression in all tissues, and the terminator from nopaline synthase (nos) provides polyadenylation. Agrobacterium tumefaciens is grown overnight at 28° C. in liquid YEP medium (Sambrook J., Fritsch E. F., Maniatis T., Molecular Cloning: a laboratory manual. 2nd ed., Cold Spring Harbor, N.Y., 1989) supplemented with 25 mg/l rifampicin, 50 mg/l streptomycin, and 50 mg/l kanamycin. An overnight culture is diluted with liquid TE medium to 4×10^8 cells/ml for transformation.
The cotyledons cultured for two days are collected in a sterilized Petri dish, and the Agrobacterium suspension is added to them to cause infection. Superfluous Agrobacterium suspension is removed from the cotyledons by using a sterilized filter paper. After further removing excess Agrobacterium suspension, a sterilized filter paper is placed on the medium in the Petri dish in order to prevent rapid propagation of Agrobacterium. The infected cotyledons are placed on this media and co-cultured for 24 hours.
The transfected cotyledons are then transferred into an agar screening medium (MS medium, 2% sucrose, 1 mg/l zeatin, 1 mg/l IAA, 1% agar, 50 mg/l kanamycin, 500 mg/l claforan, 1% agar) to select the GUS transformant plants. The regenerated shoots are then transferred into a new selecting medium to conduct further selection.

For assay [4], the system named is Arabidopsis thaliana Landsberg erecta wild type (WT). Nature of the assay: Plant growth on MS media containing conjugates, wild type. An excerpt: (§1) Arabidopsis thaliana Landsberg erecta is a wild type (WT) strain derived from the Landsberg ecotype. Arabidopsis thaliana Landsberg erecta strain DW150-307 (DW) is a transgenic strain produced using the method of Blazquez et al., 1997, Development 124:3835-3844. The transgenic DW strain is homozygous for the LFY::GUS insertion and thus contains GUS under control of the full length LFY promoter that expresses E. coli β-glucuronidase. Expression of GUS in this strain is developmentally regulated, showing the highest levels 9 days after germination (at the onset of meristem floral initiation under a long-day, 16 h. light regime), but having basal levels in vegetative apices throughout secondary growth. Accordingly, GUS expression leads to production of the E. coli β-glucuronidase enzyme in floral and to a lesser extent in shoot meristem tissues of the plant. Isogenic homozygous plant strains were kindly provided by Dr. Detlef Weigel, Department of Biology, The Salk Institute, San Diego, Calif.
(§2) Wild type (WT) and recombinant (DW) plants were grown in MS media containing 0-100 ug/mL of conjugates M0630, M0632, or M0792 (prepared as set forth herein). All plants were grown at 23° C. in long-day (16 hours light/8 hours dark) cycles, under a mixture of Cool White and Gro-Lux/WS fluorescent lights (Osram, Sylvania) and sterile conditions.

Assay [5] has as its system wild-type tomato plants. Nature of the assay: Negative selection of tomato, wild type. As to conditions: M0627 3.5 mg/L, M0630 10 mg/L, M0632 10 mg·L, M0792 5 mg/L; MS media, soil or daily spray.
Assay [6] concerns Arabidopsis thaliana Landsberg erecta strain DW150-307 (DW). The assay is described as follows: Plant growth on MS media containing conjugates, LFY::GUS recombinant. The conditions noted are these: for floral tissue response of DW plants upon inflorescence / vegetative growth of DW plants: MS media containing conjugate.
Description: as §1, §2

Assay [7] deals with Arabidopsis thaliana Landsberg erecta strain DW150-307. Nature of the assay: Growth and glycoprotein glycosylation in GUS-containing plants. As to conditions: for carbohydrate patterns of glycoproteins compared with control seeds: ANTS and 1,5-EDANS labeling, HPLC and PAGE; for decrease in number of inflorescence stems (average) / plant growth: M0809 22 mg/L or M0872 25 mg/L in MS agar medium. The protocol:
Arabidopsis thaliana Landsberg erecta strain DW150-307 plants were propagated from seeds. Seeds were surface-sterilized with 70% ethanol (30 seconds) and 2% sodium hypochlorite (15 minutes), and then placed on a plant hormone-free MS agar medium. After incubation at 4° C. for 2 days, the seeds were cultured at 25° C. for one week while the daylight hours were kept to be 16 hours. The cotyledons were taken from the obtained sterile seedlings and then placed on an MS agar medium containing either deoxynojirimycin b-D-glucuronide methyl ester (M0809) (22 mg/L) or deoxymannonojirimycin b-D-glucuronidetriacetate, methyl ester (M0872) (25 mg/L) (regeneration medium in 9 cm Petri dish), and cultured under the same conditions as those described above for 6 days. Plants were transplanted into fresh media containing the same concentrations of M0809 or M0872 as above, and growth continued for an additional 19 days, until full seed pods were obtained. Plants grew normally on media containing the M0809 or M0872, except that the number of inflorescence stems was decreased (an average of 50%) in the treated plant specimens. Seed pods, floral and stem tissues from these plants were harvested, and seeds dried briefly in vacuo (10 mm Hg, 1 hour). Seeds were crushed, and carbohydrate content of all tissues analyzed using the ANTS and 1,5-EDANS labeling systems, followed by HPLC analysis and PAGE electrophoretic analysis.

The mark [8] stands for this setting: 100 ug/mL in MS media (highest concentration).
Where [9] appears, read: lower concentrations in MS media.

Take `COC(=O)C1OC(Oc2ccc(=O)[nH]n2)C(OC(C)=O)C(OC(C)=O)C1OC(C)=O` [Example M0627, Maleic Hydrazide Beta-D-Glucuronide Triacetate, Methyl Ester]: the “effect on wild-type plants” value in assay [1] and in assay [5] was “does not affect growth or morphology” in each case. Further, the “effect on GUS-positive plants” value in assay [2] and in assay [3] was “selective ablation” each time. The “growth of wild type plants” value is given as “slightly slower” in assay [4] (setting [8]) and “comparable growth to the blank controls” in assay [4] (setting [9]).

Take `COC(=O)C1OC(Oc2c(Br)cc(C#N)cc2Br)C(OC(C)=O)C(OC(C)=O)C1OC(C)=O` [Example M0630, bromoxynil-β-D-glucuronic acid methyl ester triacetate]: the “effect on wild-type plants” value in assay [1] and in assay [5] was “does not affect growth or morphology” throughout. Besides, the “effect on GUS-positive plants” value in assay [2] and in assay [3] was “selective ablation” throughout. Moreover, in assay [6], the “floral tissue response of DW plants upon inflorescence” value is “floral tissues became chlorotic (brown) and became dehydrated and ablated”. Also, the “vegetative growth of DW plants” value in assay [6] is “normal vegetative growth until inflorescence initiation”.

With `COC(=O)C1OC(Oc2c(Br)cc(C#N)cc2Br)C(O)C(O)C1O` [Example M0632, Bromoxynil-β-D-glucuronic acid methyl ester], the “effect on wild-type plants” value in assay [1] and in assay [5] was “does not affect growth or morphology” throughout. Further, the “effect on GUS-positive plants” value in assay [2] and in assay [3] was “selective ablation” in each case. In assay [6] (1 ug/mL for 32 days), the “growth phenotype of DW150-307 plants” value was “callus formation”. For the same molecule, the “germination and survival of DW plants” value in assay [6] (media application, above the lowest concentration) is “either did not germinate or were ablated shortly after germination”. Besides, the “growth of wild type plants” value in assay [4] (setting [8]) is “slightly slower”; in assay [4] (setting [9]) it was “comparable growth to the blank controls”.

For the molecule `COC(=O)C1OC(OC(CC2CC(=O)NC(=O)C2)C2CC(C)CC(C)C2=O)C(OC(C)=O)C(OC(C)=O)C1OC(C)=O` [Example M0792, Cycloheximide-β-D-glucuronic acid methyl ester triacetate], the “effect on wild-type plants” value in assay [1] and in assay [5] was “does not affect growth or morphology” each time. For the same molecule, the “effect on GUS-positive plants” value in assay [2] and in assay [3] was “selective ablation” each time. Besides, in assay [6], the “floral tissue response of DW plants upon inflorescence” value is “floral tissues became chlorotic (brown) and became dehydrated and ablated”. Moreover, the “vegetative growth of DW plants” value in assay [6] is given as “normal vegetative growth until inflorescence initiation”. Besides, the “growth of wild type plants” value is given as “slightly slower” in assay [4] (setting [8]) and “comparable growth to the blank controls” in assay [4] (setting [9]).

As for `COC(=O)C1OC(OCC2NCC(O)C(O)C2O)C(O)C(O)C1O` [Example M0809, deoxynojirimycin b-D-glucuronide methyl ester], in assay [7], the “carbohydrate patterns of glycoproteins compared with control seeds” value is “modified in structure”, the “decrease in number of inflorescence stems (average)” value is 50% and the plant growth result is on record as “grew normally”.

As to `COC(=O)C1OC(OCC2NCC(O)C(O)C2O)C(OC(C)=O)C(OC(C)=O)C1OC(C)=O` [Example M0872, deoxymannonojirimycin b-D-glucuronidetriacetate, methyl ester], in assay [7], the “carbohydrate patterns of glycoproteins compared with control seeds” value is “modified in structure”, the “decrease in number of inflorescence stems (average)” value amounted to 50% and the plant growth result is listed as “grew normally”.
